From article PMC11995216, “End-to-End Backbone Cyclization Enhances Passive Permeability of bRo5 Oligomeric Depsipeptides with Nonlinear Size Dependence” (ACS Medicinal Chemistry Letters, 2025)
“And” between values parts separate entries of the source, which are not always exact repeats. Identical values can stand only once. Like-named read-outs stand apart in the source and are kept apart here. Values belong to the molecule of their own block, whether it stands above or below them. Starred links: 1 amine or outer side, 2 acyl side, 3 side chain; linkers in the order of their positions; H or OH if unused. Non-standard residues stand in square brackets, D forms with d. Residues, ends and D or L forms follow the SMILES beside them. X1 = CCCCC[C@H](O[*:1])C(=O)[*:2]; Ahp(2) = CCCCC[C@H](N)C(=O)O; dNMeA = CN[C@H](C)C(=O)O

Tests used:
[1] = PAMPA, cited from earlier work; for LogPapp: ratio-based method, series 2 macrocycles, previously reported, ref Thorpe et al., Chem. Sci. 2024, 15, 14977
PAMPA [2] = conditions: initial concentration 500 uM
PAMPA [3] = conditions: initial concentration 500 uM, UV detection
PAMPA [4] = conditions: Well 3 / [acc]; Well 3; initial concentration 500 uM; UV detection
in vitro = conditions: PAMPA, Papp
[5] = PAMPA, 500 uM
PAMPA [6] = conditions: calculated using Supplement Equation 1, UV detection
PAMPA [7] = conditions: UV detection
PAMPA [8] = test system: PAMPA
[9] = PAMPA, permeability assay across an artificial membrane; conditions: increase: difference between percent diffusion of macrocycle vs linear counterpart
Caco‐2 = assay: Experimental Caco‐2 permeability; type: in vitro ADME; conditions: Caco‐2 experiments, series 2
Method: Johnston et al. Supporting information
5.1 Comparison of Experimental Caco‐2 Papp to Calculated LogP
Experimental Caco‐2 vs. Calculated Permeabilities fo r Series 2
*C2.3 was not detected in Caco‐2 experiments
VI. LC/MS and ELSD Traces
In all cases, the large peak near the beginning of the run (R.T. 2‐6 minutes), is the DMSO solvent front.
(also on this page, place not known: 00 . 511 . 522 . 533 . 5 Caco2 Papp (x 10‐6 cm/s) Experimental for)

Compound: CC(C)NC[C@H](O)COc1cccc2ccccc12 [(S)‐Propranolol, reference compound]
- Literature Papp ([1]; ref Schmidt, D., Lynch, J. 2003, Millipore): 10.0 x 10‐6

- Papp at 500 uM (in vitro): 14.6 ± 2.38 ×10⁻⁶ cm/s
- Papp at 500 uM (in vitro; Ave): 14.1 ×10⁻⁶ cm/s
- Δ % diffusion [5]: ↑22%
- %T (PAMPA [6]; Well 1 / %T, Well 1): 0.91% and 0.93%
- %T (PAMPA [6]; Well 2 / %T, Well 2): 0.86% and 0.92%
- %T (PAMPA [6]; Well 3 / %T, Well 3): 0.89%
- %T (PAMPA [6]; Well 4 / %T, Well 4): 0.92% and 0.96%
- %T (PAMPA [6]; Well 5 / %T, Well 5): 0.93% and 0.99%
- % recovery (PAMPA [7]; Well 1 / %R, Well 1): 93% and 89%
- % recovery (PAMPA [7]; Well 2 / %R, Well 2): 93% and 90%
- % recovery (PAMPA [7]; Well 3 / %R, Well 3): 92% and 95%
- % recovery (PAMPA [7]; Well 4 / %R, Well 4): 99% and 95%
- % recovery (PAMPA [7]; Well 5 / %R, Well 5): 99%
- Papp (PAMPA [8]; Papp (x 10^-6 cm/s) – ELSD Detection / [row 1], ELSD Detection): 14.3 ×10⁻⁶ cm/s
- Papp (PAMPA [8]; Papp (x 10^-6 cm/s) – ELSD Detection / [row 2], ELSD Detection): 13.6 ×10⁻⁶ cm/s
- Papp (PAMPA [8]; Papp (x 10^-6 cm/s) – ELSD Detection / [row 3], ELSD Detection): 13.9 ×10⁻⁶ cm/s
- Papp (PAMPA [8]; Papp (x 10^-6 cm/s) – ELSD Detection / [row 4], ELSD Detection): 15.4 ×10⁻⁶ cm/s
- Papp (PAMPA [8]; Papp (x 10^-6 cm/s) – ELSD Detection / [row 5], ELSD Detection): 15 ×10⁻⁶ cm/s
- Papp (PAMPA [8]; Papp (x 10^-6 cm/s) – ELSD Detection / [row 6], ELSD Detection): 11.7 ×10⁻⁶ cm/s
- Papp (PAMPA [8]; Papp (x 10^-6 cm/s) – ELSD Detection / [row 7], ELSD Detection): 14.1 ×10⁻⁶ cm/s
- Papp (PAMPA [8]; Papp (x 10^-6 cm/s) – ELSD Detection / [row 8], ELSD Detection): 15 ×10⁻⁶ cm/s
- Papp (PAMPA [8]; Papp (x 10^-6 cm/s) – ELSD Detection / [row 9], ELSD Detection): 14.8 ×10⁻⁶ cm/s
- Papp (PAMPA [8]; Papp (x 10^-6 cm/s) – ELSD Detection / [row 10], ELSD Detection): 13.6 ×10⁻⁶ cm/s
- Papp (PAMPA [8]; Papp (x 10^-6 cm/s) – UV Detection / [row 1], UV Detection): 15.1 ×10⁻⁶ cm/s
- Papp (PAMPA [8]; Papp (x 10^-6 cm/s) – UV Detection / [row 2], UV Detection): 14.2 ×10⁻⁶ cm/s
- Papp (PAMPA [8]; Papp (x 10^-6 cm/s) – UV Detection / [row 3], UV Detection): 12.7 ×10⁻⁶ cm/s
- Papp (PAMPA [8]; Papp (x 10^-6 cm/s) – UV Detection / [row 4], UV Detection): 18 ×10⁻⁶ cm/s
- Papp (PAMPA [8]; Papp (x 10^-6 cm/s) – UV Detection / [row 5], UV Detection): 19 ×10⁻⁶ cm/s
- Papp (PAMPA [8]; Papp (x 10^-6 cm/s) – UV Detection / [row 6], UV Detection): 13.8 ×10⁻⁶ cm/s
- Papp (PAMPA [8]; Papp (x 10^-6 cm/s) – UV Detection / [row 7], UV Detection): 11.2 ×10⁻⁶ cm/s
- Papp (PAMPA [8]; Papp (x 10^-6 cm/s) – UV Detection / [row 8], UV Detection): 12.7 ×10⁻⁶ cm/s
- Papp (PAMPA [8]; Papp (x 10^-6 cm/s) – UV Detection / [row 9], UV Detection): 14.3 ×10⁻⁶ cm/s
- Papp (PAMPA [8]; Papp (x 10^-6 cm/s) – UV Detection / [row 10], UV Detection): 15 ×10⁻⁶ cm/s
Compound: CCCCC[C@@H]1OC(=O)[C@@H](C)N(C)C1=O [Compound C1.1]
- Acceptor Concentration (PAMPA [2]; Acceptor Concentration (uM) – ELSD Detection / [row 1], ELSD Detection): 225 µM
- Acceptor Concentration (PAMPA [2]; Acceptor Concentration (uM) – ELSD Detection / [row 2], ELSD Detection): 205 µM
- Acceptor Concentration (PAMPA [2]; Acceptor Concentration (uM) – ELSD Detection / [row 3], ELSD Detection): 212 µM
- Acceptor Concentration (PAMPA [2]; Acceptor Concentration (uM) – ELSD Detection / [row 4], ELSD Detection): 216 µM
- Acceptor Concentration (PAMPA [2]; Acceptor Concentration (uM) – ELSD Detection / [row 5], ELSD Detection): 207 µM
- Acceptor Concentration (PAMPA [2]; Acceptor Concentration (uM) – ELSD Detection / [row 6], ELSD Detection): 206 µM
- Acceptor Concentration (PAMPA [2]; Acceptor Concentration (uM) – ELSD Detection / [row 7], ELSD Detection): 216 µM
- Acceptor Concentration (PAMPA [2]; Acceptor Concentration (uM) – ELSD Detection / [row 8], ELSD Detection): 218 µM
- Acceptor Concentration (PAMPA [2]; Acceptor Concentration (uM) – ELSD Detection / [row 9], ELSD Detection): 208 µM
- Acceptor Concentration (PAMPA [2]; Acceptor Concentration (uM) – ELSD Detection / [row 10], ELSD Detection): 202 µM
- Acceptor Concentration (PAMPA [2]; Acceptor Concentration (uM) – UV Detection / [row 1], UV Detection): 208 µM
- Acceptor Concentration (PAMPA [2]; Acceptor Concentration (uM) – UV Detection / [row 2], UV Detection): 204 µM
- Acceptor Concentration (PAMPA [2]; Acceptor Concentration (uM) – UV Detection / [row 3], UV Detection): 193 µM
- Acceptor Concentration (PAMPA [2]; Acceptor Concentration (uM) – UV Detection / [row 4], UV Detection): 231 µM
- Acceptor Concentration (PAMPA [2]; Acceptor Concentration (uM) – UV Detection / [row 5], UV Detection): 245 µM
- Acceptor Concentration (PAMPA [2]; Acceptor Concentration (uM) – UV Detection / [row 6], UV Detection): 193 µM
- Acceptor Concentration (PAMPA [2]; Acceptor Concentration (uM) – UV Detection / [row 7], UV Detection): 178 µM
- Acceptor Concentration (PAMPA [2]; Acceptor Concentration (uM) – UV Detection / [row 8], UV Detection): 199 µM
- Acceptor Concentration (PAMPA [2]; Acceptor Concentration (uM) – UV Detection / [row 9], UV Detection): 208 µM
- Acceptor Concentration (PAMPA [2]; Acceptor Concentration (uM) – UV Detection / [row 10], UV Detection): 209 µM
- donor concentration after incubation (PAMPA [3]; Well 1 / [donor], Well 1): 259 µM and 253 µM
- donor concentration after incubation (PAMPA [3]; Well 2 / [donor], Well 2): 262 µM and 271 µM
- donor concentration after incubation (PAMPA [3]; Well 3 / [donor], Well 3): 267 µM and 276 µM
- donor concentration after incubation (PAMPA [3]; Well 4 / [donor], Well 4): 264 µM and 266 µM
- donor concentration after incubation (PAMPA [3]; Well 5 / [donor], Well 5): 250 µM and 261 µM
- acceptor concentration after incubation (PAMPA [4]): 193 µM

Compound: CCCCC[C@@H]1NC(=O)[C@@H](C)N(C)C(=O)[C@H](CCCCC)OC(=O)[C@@H](C)N(C)C(=O)[C@H](CCCCC)OC(=O)[C@@H](C)N(C)C(=O)[C@H](CCCCC)OC(=O)[C@@H](C)N(C)C1=O [Compound C2.1] (cyclo([Ahp(2)][dNMeA][X1][dNMeA][X1][dNMeA][X1][dNMeA]))
- LogPapp [1]: -4.91 ± 0.09
- Δ % diffusion [9]: ↑19%

Compound: CCCCC[C@@H]1NC(=O)[C@@H](C)N(C)C(=O)[C@H](CCCCC)OC(=O)[C@@H](C)N(C)C(=O)[C@H](CCCCC)OC(=O)[C@@H](C)N(C)C(=O)[C@H](CCCCC)NC(=O)[C@@H](C)N(C)C1=O [Compound C2.2] (cyclo([Ahp(2)][dNMeA][Ahp(2)][dNMeA][X1][dNMeA][X1][dNMeA]))
- LogPapp [1]: -5.05 ± 0.03
- Δ % diffusion [9]: ↑17%

Compound: CCCCC[C@@H]1NC(=O)[C@@H](C)N(C)C(=O)[C@H](CCCCC)OC(=O)[C@@H](C)N(C)C(=O)[C@H](CCCCC)NC(=O)[C@@H](C)N(C)C(=O)[C@H](CCCCC)OC(=O)[C@@H](C)N(C)C1=O [Compound C2.3] (cyclo([Ahp(2)][dNMeA][X1][dNMeA][Ahp(2)][dNMeA][X1][dNMeA]))
- Experimental Caco‐2 Papp (Caco‐2): not detected
- LogPapp [1]: -5.23 ± 0.04
- Δ % diffusion [9]: ↑10%

Compound: CCCCC[C@@H]1NC(=O)[C@@H](C)N(C)C(=O)[C@H](CCCCC)NC(=O)[C@@H](C)N(C)C(=O)[C@H](CCCCC)OC(=O)[C@@H](C)N(C)C(=O)[C@H](CCCCC)NC(=O)[C@@H](C)N(C)C1=O [Compound C2.4] (cyclo([Ahp(2)][dNMeA][Ahp(2)][dNMeA][Ahp(2)][dNMeA][X1][dNMeA]))
- LogPapp [1]: -5.33 ± 0.07
- Δ % diffusion [9]: ↑7%

Compound: CCCCC[C@@H]1NC(=O)[C@@H](C)N(C)C(=O)[C@H](CCCCC)NC(=O)[C@@H](C)N(C)C(=O)[C@H](CCCCC)NC(=O)[C@@H](C)N(C)C(=O)[C@H](CCCCC)NC(=O)[C@@H](C)N(C)C1=O [Compound C2.5] (cyclo([Ahp(2)][dNMeA][Ahp(2)][dNMeA][Ahp(2)][dNMeA][Ahp(2)][dNMeA]))
- LogPapp [1]: -5.31 ± 0.04
- Δ % diffusion [5]: ↑6%
